From US20240252650A1, “LIPID COMPOUNDS AND LIPID NANOPARTICLE COMPOSITIONS” (SUZHOU ABOGEN BIOSCIENCES CO., LTD., priority 2021, published 2024)

Assay: Apparent pKa of LNP formulations by TNS fluorescence assay
Assay type: physicochemical
Details: LNP cationic lipid/DSPC/cholesterol/DMG-PEG 50/10/38.5/1.5 mol %, table of Example 16
Description: As reported in literature, the apparent pKa of LNP formulations correlates with the delivery efficiency of LNPs for nucleic acids in vivo. The apparent pKa of each formulation was determined using an assay based on fluorescence of 2-(p-toluidino)-6-napthalene sulfonic acid (TNS). LNP formulations comprising of cationic lipid/DSPC/cholesterol/DMG-PEG (50/10/38.5/1.5 mol %) in PBS were prepared as described above. TNS was prepared as a 300 uM stock solution in distilled water. LNP formulations were diluted to 0.1 mg/ml total lipid in 3 mL of buffered solutions containing 50 mM sodium citrate, 50 mM sodium phosphate, 50 mM sodium borate, and 30 mM sodium chloride where the pH ranged from 3 to 9. An aliquot of the TNS solution was added to give a final concentration of 0.1 mg/ml and following vortex mixing fluorescence intensity was measured at room temperature in a Molecular Devices Spectramax iD3 spectrometer using excitation and mission wavelengths of 325 nm and 435 nm. A sigmoidal best fit analysis was applied to the fluorescence data and the pKa value was measured as the pH giving rise to half-maximal fluorescent intensity.

Row | SMILES | Apparant Pka
1 | CCCCCCCCCCCCCCCC(=O)OCC(COC(=O)CCCCN(CCO)C1CCC1)COC(=O)CCCC(COC(=O)CCCCCCC)COC(=O)CCCCCCC (centres unmarked) [Compound 41] | 6.895
2 | CCCCCCCC(=O)OCC(CCCC(=O)OCC(COC(=O)CCCCCCC)COC(=O)CCCCCCCN(CCO)C1CCC1)COC(=O)CCCCCCC (centres unmarked) [Compound 44] | 6.812
3 | CCCCCCCCCC(=O)OCC(COC(=O)CCCCN(CCO)C1CCC1)COC(=O)CCCC(COC(=O)CCCCCCC)COC(=O)CCCCCCC (centres unmarked) [Compound 47] | 7.217
4 | CCCCCCCCCCCC(=O)OCC(COC(=O)CCCCCN(CCO)C1CCC1)COC(=O)CCCC(COC(=O)CCCCCCC)COC(=O)CCCCCCC (centres unmarked) [Compound 51] | 7.288
5 | CCCCCCCCCCCC(=O)OCC(COC(=O)CCCCCCCN(CCO)C1CCC1)COC(=O)CCCC(COC(=O)CCCCCCC)COC(=O)CCCCCCC (centres unmarked) [Compound 52] | 7.041
6 | CCCCCCCCCCCCCCCCCC(=O)OCC(COC(=O)CCCCCN(CCO)C1CCC1)COC(=O)CCCC(COC(=O)CCCCC)COC(=O)CCCCCCC (centres unmarked) [Compound 61] | 7.019
7 | CCCCCCCCCCCCC(=O)OCC(COC(=O)CCCCCN(CCO)C1CCC1)COC(=O)CCCC(COC(=O)CCCCCCC)COC(=O)CCCCCCC (centres unmarked) [Compound 63] | 6.999
8 | CCCCCCCCCCCCCCCCCC(=O)OCC(COC(=O)CCCC(COC(=O)CCCCCCC)COC(=O)CCCCCCC)COC(=O)OCCCN(CCO)C1CCCCC1 (centres unmarked) [Compound 65] | 6.111
9 | CCCCCCCCC(=O)OCC(COC(=O)CCCC(COC(=O)CCCCCCC)COC(=O)CCCCCCC)COC(=O)OCCCN(CCO)C1CCC1 (centres unmarked) [Compound 67] | 6.349
10 | CCCCCCCCCCCCCCCCCC(=O)OCC(COC(=O)CCCCN(CCO)C1CCC1)COC(=O)CCCC(COC(=O)CCCCCCC)COC(=O)CCCCCCC (centres unmarked) [Compound 72] | 7.076
11 | CCCCCCCCCCCCCCCCCC(=O)OCC(COC(=O)CCCCN(CCO)C1CCCCCC1)COC(=O)CCCC(COC(=O)CCCCCCC)COC(=O)CCCCCCC (centres unmarked) [Compound 75] | 6.547
12 | CCCCCCCCCC(=O)OCC(COC(=O)CCCCCCN(CCO)C1CCC1)COC(=O)CCCC(COC(=O)CCCCCCC)COC(=O)CCCCCCC (centres unmarked) [Compound 79] | 6.887
13 | CCCCCCCCCC(=O)OCC(COC(=O)CCCCCCCN(CCO)C1CCC1)COC(=O)CCCC(COC(=O)CCCCCCC)COC(=O)CCCCCCC (centres unmarked) [Compound 80] | 6.858
14 | CCCCCCCCCCCCCCCCCC(=O)OCC(COC(=O)CCCCN(CCC)CCO)COC(=O)CCCC(COC(=O)CCCCCCC)COC(=O)CCCCCCC (centres unmarked) [Compound 83] | 7.232
15 | C=CCN(CCO)CCCOC(=O)OCC(COC(=O)CCCCCCC/C=C\C/C=C\CCCCC)COC(=O)CCCC(COC(=O)CCCCCCC)COC(=O)CCCCCCC (centres unmarked) [Compound 88] | 5.905
16 | C/C=C/CN(CCO)CCCOC(=O)OCC(COC(=O)CCCCCCC/C=C\C/C=C\CCCCC)COC(=O)CCCC(COC(=O)CCCCCCC)COC(=O)CCCCCCC (centres unmarked) [Compound 94] | 6.192
17 | CCCCCCCCCCCCCCCCCC(=O)OCC(COC(=O)CCCCN(CCO)CC(C)C)COC(=O)CCCC(COC(=O)CCCCCCC)COC(=O)CCCCCCC (centres unmarked) [Compound 97] | 6.006
